Legend:
MDA-MB-231 [1] = test: Growth inhibition of human MDA-MB-231 cells assessed as cell growth at 100 uM incubated for 48 hrs by sulforhodamine B assay relative to control; format: functional; conditions: MDA-MB-231, 48 h, read-out: Activity
OVCAR-5 = test: Growth inhibition of human OVCAR5 cells incubated for 48 hrs by sulforhodamine B assay; format: functional, cell-based; conditions: OVCAR-5, 48 h
HL-60(TB) [2] = test: Growth inhibition of human HL-60(TB) cells assessed as cell growth at 100 uM incubated for 48 hrs by sulforhodamine B assay relative to control; format: functional; conditions: HL-60, 48 h, read-out: Activity
MDA-MB-468 = test: Growth inhibition of human MDA-MB-468 cells assessed as cell growth at 0.1 uM incubated for 48 hrs by sulforhodamine B assay relative to control; format: functional; conditions: MDA-MB-468, 48 h, read-out: Activity
RPMI-8226 = test: Growth inhibition of human RPMI8226 cells assessed as cell growth at 0.1 uM incubated for 48 hrs by sulforhodamine B assay relative to control; format: functional; conditions: RPMI-8226, 48 h, read-out: Activity
HL-60(TB) [3] = test: Growth inhibition of human HL-60(TB) cells incubated for 48 hrs by sulforhodamine B assay; format: functional, cell-based; conditions: HL-60, 48 h
SW-620 = test: Growth inhibition of human SW620 cells assessed as cell growth at 0.1 uM incubated for 48 hrs by sulforhodamine B assay relative to control; format: functional; conditions: SW-620, 48 h, read-out: Activity
BT-549 [4] = test: Growth inhibition of human BT549 cells incubated for 48 hrs by sulforhodamine B assay; format: functional, cell-based; conditions: BT-549, 48 h
ACHN = test: Growth inhibition of human ACHN cells assessed as cell growth at 0.01 uM incubated for 48 hrs by sulforhodamine B assay relative to control; format: functional; conditions: read-out: Activity
CAKI-1 = test: Growth inhibition of human Caki1 cells incubated for 48 hrs by sulforhodamine B assay; format: functional, cell-based; conditions: CAKI-1, 48 h
PC-3 = test: Growth inhibition of human PC3 cells assessed as cell growth at 100 uM incubated for 48 hrs by sulforhodamine B assay relative to control; format: functional; conditions: PC-3, 48 h, read-out: Activity
SNB-19 = test: Growth inhibition of human SNB19 cells assessed as cell growth at 100 uM incubated for 48 hrs by sulforhodamine B assay relative to control; format: functional; conditions: SNB-19, 48 h, read-out: Activity
786-0 [5] = test: Growth inhibition of human 786-0 cells assessed as cell growth at 0.01 uM incubated for 48 hrs by sulforhodamine B assay relative to control; format: functional; conditions: 786-0, 48 h, read-out: Activity
BT-549 [6] = test: Growth inhibition of human BT549 cells assessed as cell growth at 0.01 uM incubated for 48 hrs by sulforhodamine B assay relative to control; format: functional; conditions: BT-549, 48 h, read-out: Activity
HL-60(TB) [7] = test: Growth inhibition of human HL-60(TB) cells assessed as cell growth at 0.01 uM incubated for 48 hrs by sulforhodamine B assay relative to control; format: functional; conditions: HL-60, 48 h, read-out: Activity
786-0 [8] = test: Growth inhibition of human 786-0 cells incubated for 48 hrs by sulforhodamine B assay; format: functional, cell-based; conditions: 786-0, 48 h
MDA-MB-231 [9] = test: Growth inhibition of human MDA-MB-231 cells incubated for 48 hrs by sulforhodamine B assay; format: functional, cell-based; conditions: MDA-MB-231, 48 h
SN12C = test: Growth inhibition of human SN12C cells incubated for 48 hrs by sulforhodamine B assay; format: functional, cell-based
RXF 393 = test: Growth inhibition of human RXF393 cells assessed as cell growth at 1 uM incubated for 48 hrs by sulforhodamine B assay relative to control; format: functional; conditions: RXF 393, 48 h, read-out: Activity
NCI-H322M = test: Growth inhibition of human NCI-H322M cells assessed as cell growth at 0.01 uM incubated for 48 hrs by sulforhodamine B assay relative to control; format: functional; conditions: read-out: Activity
T47D = test: Growth inhibition of human T47D cells assessed as cell growth at 1 uM incubated for 48 hrs by sulforhodamine B assay relative to control; format: functional; conditions: read-out: Activity
NCI-H226 = test: Growth inhibition of human NCI-H226 cells assessed as cell growth at 0.1 uM incubated for 48 hrs by sulforhodamine B assay relative to control; format: functional; conditions: NCI-H226, 48 h, read-out: Activity
OVCAR-4 = test: Growth inhibition of human OVCAR4 cells assessed as cell growth at 0.1 uM incubated for 48 hrs by sulforhodamine B assay relative to control; format: functional; conditions: OVCAR-4, 48 h, read-out: Activity
MCF7 = test: Growth inhibition of human MCF7 cells assessed as cell growth at 100 uM incubated for 48 hrs by sulforhodamine B assay relative to control; format: functional; conditions: MCF7, 48 h, read-out: Activity
MDA-MB-435 = test: Growth inhibition of human MDA-MB-435 cells assessed as cell growth at 1 uM incubated for 48 hrs by sulforhodamine B assay relative to control; format: functional; conditions: MDA-MB-435, 48 h, read-out: Activity
HCC 2998 = test: Growth inhibition of human HCC2998 cells assessed as cell growth at 0.1 uM incubated for 48 hrs by sulforhodamine B assay relative to control; format: functional; conditions: HCC 2998, 48 h, read-out: Activity
SF-295 = test: Growth inhibition of human SF295 cells assessed as cell growth at 1 uM incubated for 48 hrs by sulforhodamine B assay relative to control; format: functional; conditions: SF-295, 48 h, read-out: Activity
NCI-H460 = test: Growth inhibition of human NCI-H460 cells incubated for 48 hrs by sulforhodamine B assay; format: functional, cell-based; conditions: NCI-H460, 48 h
[10] = read-out: LC50 (the source's name)
[11] = read-out: pLC50 (the source's name) (converted)

`COc1cc(Cl)cc(-c2nn(-c3cccc(NC(=O)c4cccc(C(F)(F)F)c4)c3)cc2-c2ccncc2)c1` showed a growth at 100 µM (MDA-MB-231 [1]) of -14%, a GI50 (OVCAR-5; read-out: GI50) of over 100 µM and a CC50 (OVCAR-5; [10]) of over 100 µM. The TGI (OVCAR-5; read-out: TGI) was over 100 µM, the GI50 (OVCAR-5; read-out: pGI50 (converted)) was over 100 µM and the CC50 (OVCAR-5; [11]) was over 100 µM. It also gave a TGI (OVCAR-5; read-out: pTGI (converted)) of over 100 µM, a growth at 100 µM (HL-60(TB) [2]) of 49% and a growth at 0.1 µM (MDA-MB-468) of 85%. The growth at 0.1 µM (RPMI-8226) was 97%, the GI50 (HL-60(TB) [3]; read-out: GI50) was 4.5 µM and the LC50 (HL-60(TB) [3]; read-out: LC50) was over 100 µM. For the same compound, the TGI (HL-60(TB) [3]; read-out: TGI) was over 100 µM, the GI50 (HL-60(TB) [3]; read-out: pGI50 (converted)) was 45.7 µM and the LC50 (HL-60(TB) [3]; read-out: pLC50 (converted)) was over 100 µM. The TGI (HL-60(TB) [3]; read-out: pTGI (converted)) was over 100 µM, the growth at 0.1 µM (SW-620) was 99% and the GI50 (BT-549 [4]; read-out: GI50) was over 100 µM. It also gave a CC50 (BT-549 [4]; [10]) of over 100 µM, a TGI (BT-549 [4]; read-out: TGI) of over 100 µM and a GI50 (BT-549 [4]; read-out: pGI50 (converted)) of over 100 µM. For the same compound, the CC50 (BT-549 [4]; [11]) was over 100 µM, the TGI (BT-549 [4]; read-out: pTGI (converted)) was over 100 µM and the growth at 0.01 µM (ACHN) was 98%. For the same compound, the GI50 (CAKI-1; read-out: GI50) was 3.58 µM, the CC50 (CAKI-1; [10]) was over 100 µM and the TGI (CAKI-1; read-out: TGI) was over 100 µM. The GI50 (CAKI-1; read-out: pGI50 (converted)) was 3.89 µM, the CC50 (CAKI-1; [11]) was over 100 µM and the TGI (CAKI-1; read-out: pTGI (converted)) was over 100 µM. For the same compound, the growth at 100 µM (PC-3) was 17%, the growth at 100 µM (SNB-19) was 72% and the growth at 0.01 µM (786-0 [5]) was 99%. For the same compound, the growth at 0.01 µM (BT-549 [6]) was 108%, the growth at 0.01 µM (HL-60(TB) [7]) was 59% and the GI50 (786-0 [8]; read-out: GI50) was 1.57 µM. The CC50 (786-0 [8]; [10]) was over 100 µM, the TGI (786-0 [8]; read-out: TGI) was over 100 µM and the GI50 (786-0 [8]; read-out: pGI50 (converted)) was 16.6 µM. For the same compound, the CC50 (786-0 [8]; [11]) was over 100 µM, the TGI (786-0 [8]; read-out: pTGI (converted)) was over 100 µM and the GI50 (MDA-MB-231 [9]; read-out: GI50) was 1.38 µM. For the same compound, the CC50 (MDA-MB-231 [9]; [10]) was over 100 µM, the TGI (MDA-MB-231 [9]; read-out: TGI) was 99.7 µM and the GI50 (MDA-MB-231 [9]; read-out: pGI50 (converted)) was 1.38 µM. The CC50 (MDA-MB-231 [9]; [11]) was over 100 µM, the TGI (MDA-MB-231 [9]; read-out: pTGI (converted)) was 10 µM and the GI50 (SN12C; read-out: GI50) was over 100 µM. For the same compound, the LC50 (SN12C; read-out: LC50) was over 100 µM, the TGI (SN12C; read-out: TGI) was over 100 µM and the GI50 (SN12C; read-out: pGI50 (converted)) was over 100 µM. It also gave an LC50 (SN12C; read-out: pLC50 (converted)) of over 100 µM, a TGI (SN12C; read-out: pTGI (converted)) of over 100 µM and a growth at 1 µM (RXF 393) of 53%. The growth at 0.01 µM (NCI-H322M) was 69%, the growth at 1 µM (T47D) was 92% and the growth at 0.1 µM (NCI-H226) was 90%. The growth at 0.1 µM (OVCAR-4) was 95%, the growth at 100 µM (MCF7) was 38% and the growth at 1 µM (MDA-MB-435) was 93%. For the same compound, the growth at 0.1 µM (HCC 2998) was 104%, the growth at 1 µM (SF-295) was 57% and the GI50 (NCI-H460; read-out: GI50) was 5.17 µM. The CC50 (NCI-H460; [10]) was over 100 µM, the TGI (NCI-H460; read-out: TGI) was over 100 µM and the GI50 (NCI-H460; read-out: pGI50 (converted)) was 5.13 µM. It also gave a CC50 (NCI-H460; [11]) of over 100 µM and a TGI (NCI-H460; read-out: pTGI (converted)) of over 100 µM.

Source: ChEMBL document CHEMBL4308841, “Synthesis, in vitro antiproliferative activity, and kinase inhibitory effects of pyrazole-containing diarylureas and diarylamides” (Eur J Med Chem, 2018)
